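Values below derive from 48-hour exposures of cells grown in 96-well plates, with endpoints linearly interpolated between the two concentrations bracketing the appropriate inhibition level. TGI denotes the concentration required for complete inhibition of growth.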
What was measured:
Assay in all cases: NCI-60 cell line screen, 48 h
[1] = tested on: CAKI-1 renal
[2] = tested on: XF 498 CNS
[3] = tested on: DMS 114 small cell lung
[4] = tested on: TK-10 renal
[5] = tested on: HCC-2998 colon
[6] = tested on: NCI-H226 lung
[7] = tested on: MOLT-4 leukemia
[8] = tested on: LOX IMVI melanoma
[9] = tested on: OVCAR-8 ovarian
[10] = tested on: HCT-116 colon
[11] = tested on: DMS 273 small cell lung
[12] = tested on: NCI-H460 lung
[13] = tested on: M14 melanoma
[14] = tested on: SNB-19 CNS
[15] = tested on: OVCAR-5 ovarian
[16] = tested on: SF-295 CNS
[17] = tested on: RXF 393 renal
[18] = tested on: SR leukemia
[19] = tested on: OVCAR-4 ovarian
[20] = tested on: SK-MEL-2 melanoma
[21] = tested on: NCI-H522 lung
[22] = tested on: ACHN renal
[23] = tested on: HL-60(TB) leukemia
[24] = tested on: SK-OV-3 ovarian
[25] = tested on: SN12C renal
[26] = tested on: A498 renal
[27] = tested on: IGROV1 ovarian
[28] = tested on: SNB-75 CNS
[29] = tested on: KM20L2 colon
[30] = tested on: SF-268 CNS
[31] = tested on: RXF-631 renal
[32] = tested on: UO-31 renal
[33] = tested on: HOP-62 NSCLC
[34] = tested on: K-562 leukemia
[35] = tested on: U251 CNS
[36] = tested on: SNB-78 CNS
[37] = tested on: KM12 colon
[38] = tested on: SW-620 colon
[39] = tested on: UACC-257 melanoma
[40] = tested on: NCI-H23 lung
[41] = tested on: M19-MEL melanoma
[42] = tested on: COLO 205 colon
[43] = tested on: RPMI-8226 leukemia
[44] = tested on: A549 NSCLC
[45] = tested on: EKVX NSCLC
[46] = tested on: OVCAR-3 ovarian
[47] = tested on: MALME-3M melanoma
[48] = tested on: SK-MEL-5 melanoma
[49] = tested on: HCT-15 colon
[50] = tested on: SK-MEL-28 melanoma
[51] = tested on: HOP-92 NSCLC
[52] = tested on: LXFL 529 NSCLC
[53] = tested on: CCRF-CEM leukemia
[54] = tested on: DLD-1 colon
[55] = tested on: SF-539 CNS
[56] = tested on: 786-0 renal
[57] = tested on: BT-549 breast
[58] = tested on: MDA-MB-435
[59] = tested on: MCF7 breast
[60] = tested on: NCI/ADR-RES ovarian
[61] = tested on: PC-3 prostate
[62] = tested on: HT29 colon
[63] = tested on: MDA-N
[64] = tested on: T-47D breast
[65] = tested on: DU-145 prostate
[66] = tested on: UACC-62 melanoma
[67] = tested on: HS 578T breast
[68] = tested on: MDA-MB-231 breast

**Q.** For `CC(=O)C1Cn2c(=O)c3cc4ccccc4cc3c(=O)n2C=C1C` (centres undefined), which TGI [1] is on record?
**A.** Its TGI is over 100 µM.

**Q.** And the TGI [2]?
**A.** Its TGI is over 100 µM.

**Q.** And the TGI [3]?
**A.** Its TGI is over 100 µM.

**Q.** And the TGI [4]?
**A.** The TGI was over 100 µM.

**Q.** What about the TGI [5] of the same molecule?
**A.** Its TGI is over 100 µM.

**Q.** What about the TGI [6] of the same molecule?
**A.** The TGI was over 100 µM.

**Q.** And the TGI [7]?
**A.** The TGI was over 100 µM.

**Q.** And the TGI [8]?
**A.** Its TGI is over 100 µM.

**Q.** What about the TGI [9] of the same molecule?
**A.** Its TGI is over 100 µM.

**Q.** What about the TGI [10] of the same molecule?
**A.** The TGI was over 100 µM.

**Q.** And the TGI [11]?
**A.** The TGI was over 100 µM.

**Q.** What about the TGI [12] of the same molecule?
**A.** The TGI was over 100 µM.

**Q.** And the TGI [13]?
**A.** The TGI was over 100 µM.

**Q.** What about the TGI [14] of the same molecule?
**A.** The TGI was over 100 µM.

**Q.** And the TGI [15]?
**A.** Its TGI is over 100 µM.

**Q.** And the TGI [16]?
**A.** The TGI was over 100 µM.

**Q.** What about the TGI [17] of the same molecule?
**A.** Its TGI is over 100 µM.

**Q.** And the TGI [18]?
**A.** Its TGI is over 100 µM.

**Q.** And the TGI [19]?
**A.** The TGI was over 100 µM.

**Q.** And the TGI [20]?
**A.** The TGI was over 100 µM.

**Q.** And the TGI [21]?
**A.** The TGI was over 100 µM.

**Q.** What about the TGI [22] of the same molecule?
**A.** Its TGI is over 100 µM.

**Q.** And the TGI [23]?
**A.** Its TGI is over 100 µM.

**Q.** And the TGI [24]?
**A.** The TGI was over 100 µM.

**Q.** What about the TGI [25] of the same molecule?
**A.** The TGI was over 100 µM.

**Q.** And the TGI [26]?
**A.** Its TGI is over 100 µM.

**Q.** And the TGI [27]?
**A.** Its TGI is over 100 µM.

**Q.** And the TGI [28]?
**A.** The TGI was over 100 µM.

**Q.** And the TGI [29]?
**A.** The TGI was over 100 µM.

**Q.** And the TGI [30]?
**A.** The TGI was over 100 µM.

**Q.** And the TGI [31]?
**A.** Its TGI is over 100 µM.

**Q.** What about the TGI [32] of the same molecule?
**A.** Its TGI is over 100 µM.

**Q.** And the TGI [33]?
**A.** The TGI was over 100 µM.

**Q.** What about the TGI [34] of the same molecule?
**A.** Its TGI is over 100 µM.

**Q.** What about the TGI [35] of the same molecule?
**A.** Its TGI is over 100 µM.

**Q.** And the TGI [36]?
**A.** The TGI was over 100 µM.

**Q.** And the TGI [37]?
**A.** Its TGI is over 100 µM.

**Q.** And the TGI [38]?
**A.** Its TGI is over 100 µM.

**Q.** And the TGI [39]?
**A.** The TGI was over 100 µM.

**Q.** What about the TGI [40] of the same molecule?
**A.** The TGI was over 100 µM.

**Q.** And the TGI [41]?
**A.** The TGI was over 100 µM.

**Q.** What about the TGI [42] of the same molecule?
**A.** The TGI was over 100 µM.

**Q.** And the TGI [43]?
**A.** The TGI was over 100 µM.

**Q.** And the TGI [44]?
**A.** The TGI was over 100 µM.

**Q.** What about the TGI [45] of the same molecule?
**A.** The TGI was over 100 µM.

**Q.** And the TGI [46]?
**A.** The TGI was over 100 µM.

**Q.** What about the TGI [47] of the same molecule?
**A.** The TGI was over 100 µM.

**Q.** And the TGI [48]?
**A.** The TGI was over 100 µM.

**Q.** And the TGI [49]?
**A.** Its TGI is over 100 µM.

**Q.** And the TGI [50]?
**A.** The TGI was over 100 µM.

**Q.** What about the TGI [51] of the same molecule?
**A.** Its TGI is over 100 µM.

**Q.** What about the TGI [52] of the same molecule?
**A.** The TGI was over 100 µM.

**Q.** And the TGI [53]?
**A.** The TGI was over 100 µM.

**Q.** And the TGI [54]?
**A.** The TGI was over 100 µM.

**Q.** What about the TGI [55] of the same molecule?
**A.** The TGI was over 100 µM.

**Q.** And the TGI [56]?
**A.** Its TGI is over 100 µM.

**Q.** What does the source list for `O=C(O)C(C(=O)O)P(=S)(S)c1ccccc1` (centres undefined)?
**A.** TGI [1]: > 100 µM; TGI [57]: > 100 µM; TGI [58]: > 100 µM; TGI [2]: > 100 µM; TGI [3]: > 100 µM; TGI [4]: > 100 µM; TGI [5]: > 100 µM; TGI [6]: > 100 µM; TGI [7]: > 100 µM; TGI [8]: > 100 µM; TGI [9]: > 100 µM; TGI [59]: > 100 µM; TGI [60]: > 100 µM; TGI [10]: > 100 µM; TGI [11]: > 100 µM; TGI [12]: > 100 µM; TGI [13]: > 100 µM; TGI [61]: > 100 µM; TGI [14]: > 100 µM; TGI [15]: > 100 µM; TGI [16]: > 100 µM; TGI [17]: > 100 µM; TGI [18]: > 100 µM; TGI [62]: > 100 µM; TGI [19]: > 100 µM; TGI [20]: > 100 µM; TGI [21]: > 100 µM; TGI [22]: > 100 µM; TGI [23]: > 100 µM; TGI [24]: > 100 µM; TGI [63]: > 100 µM; TGI [64]: > 100 µM; TGI [25]: > 100 µM; TGI [26]: > 100 µM; TGI [27]: > 100 µM; TGI [28]: > 100 µM; TGI [29]: > 100 µM; TGI [30]: > 100 µM; TGI [31]: > 100 µM; TGI [32]: > 100 µM; TGI [33]: > 100 µM; TGI [34]: > 100 µM; TGI [65]: > 100 µM; TGI [35]: > 100 µM; TGI [66]: > 100 µM; TGI [36]: > 100 µM; TGI [37]: > 100 µM; TGI [38]: > 100 µM; TGI [39]: > 100 µM; TGI [40]: > 100 µM; TGI [41]: > 100 µM; TGI [42]: > 100 µM; TGI [43]: > 100 µM; TGI [44]: > 100 µM; TGI [45]: > 100 µM; TGI [46]: > 100 µM; TGI [47]: > 100 µM; TGI [48]: > 31.6 µM; TGI [49]: > 100 µM; TGI [50]: > 100 µM; TGI [51]: > 100 µM; TGI [52]: > 100 µM; TGI [67]: > 100 µM; TGI [53]: > 100 µM; TGI [68]: > 100 µM; TGI [54]: > 100 µM; TGI [55]: > 100 µM; TGI [56]: > 100 µM
